Biological target: T1, SHP2 (Homo sapiens, UniProt Q06124)
T1 construct: gene PTPN11; recombinant hSHP2-FC (R&D Systems, 1894-SH-100)
T1 sequence (Q06124 2-593): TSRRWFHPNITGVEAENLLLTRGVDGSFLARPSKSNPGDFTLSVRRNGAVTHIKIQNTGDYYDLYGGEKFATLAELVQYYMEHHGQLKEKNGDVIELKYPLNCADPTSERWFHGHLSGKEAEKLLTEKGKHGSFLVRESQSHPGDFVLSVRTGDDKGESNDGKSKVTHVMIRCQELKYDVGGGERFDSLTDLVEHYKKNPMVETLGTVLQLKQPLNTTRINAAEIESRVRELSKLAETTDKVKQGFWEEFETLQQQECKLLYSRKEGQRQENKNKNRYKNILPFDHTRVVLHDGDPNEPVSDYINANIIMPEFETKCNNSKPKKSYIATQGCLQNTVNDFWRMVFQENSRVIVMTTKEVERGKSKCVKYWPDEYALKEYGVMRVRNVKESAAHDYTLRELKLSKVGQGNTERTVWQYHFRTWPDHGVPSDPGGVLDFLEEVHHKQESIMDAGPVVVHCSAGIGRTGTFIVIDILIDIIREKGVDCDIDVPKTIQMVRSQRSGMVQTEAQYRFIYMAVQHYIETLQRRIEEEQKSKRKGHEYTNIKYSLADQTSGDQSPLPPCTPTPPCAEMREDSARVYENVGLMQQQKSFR
T1 sequence (Q15116 235-264 partner): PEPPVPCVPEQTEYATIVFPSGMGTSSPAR
Experiment: ELISA: MB blocks binding of purified recombinant SHP2-Fc to coated phospho-ITSM PD-1 peptide; supported by co-IP and split-luciferase complementation in cells
Type: biochemical

CN(C)c1ccc2nc3ccc(N(C)C)cc3[s+]c2c1 [MB, 3,7‐bis(dimethylamino)‐5‐phenothiazinium chloride]
ELISA: MB blocks binding of purified recombinant SHP2-Fc to coated phospho-ITSM: MB dose‐dependently blocked the binding of SHP2 protein to coated Pep‐ITSM‐p248Y, unequivocally showing that MB directly blocked interaction

From PMC7278553, “Blocking interaction between SHP2 and PD‐1 denotes a novel opportunity for developing PD‐1 inhibitors” (EMBO Molecular Medicine, 2020)
